Results published in US6787572B2, “Use of ubiquinone Q10 for the local treatment and prevention of post-surgical ophthalmologic pathologies” (priority 1999, dated 2004).

Assays:
[1] = cited from earlier work
RCE cells [2] = assay: Counting of vital cells by trypan blue exclusion test after radiation; type: cell-based, rabbit; settings: Q10 10 μM in Lutrol F127; excimer laser and 254 nm UV (15,000 μJ/cm^2); FIGS. 5a, 5b
Protocol: However, the fact that the Q10 has a general protection effect against death by radiation is an important data in preventing […] collateral effects. In order to perform the trypan blue test, RCE cells have been plated at a density of 5×10^5 cells/plates with 10-cm diameter incubated overnight at 37° C., […]. Subsequently, the plates have been preincubated for 2 hours with Q10 10 μM dissolved in the Lutrol F127^MT solution or with Lutrol F127™ only. The culture medium has been then replaced by 8 ml of sterile PBS, additioned with Ca^++ and Mg^++ to avoid the cell detachment from the support, and the plates have undergone treatment with excimer laser and λ=254 UV radiation in a Stratalinker apparatus, model 1800 (Stratagene). Subsequently the PBS has been replaced by fresh culture medium additioned with the above reagents. The plates have been incubated for the time shown in FIG. 6a and in FIG. 6b and subsequently detached by trypsin according to standard procedures and resuspended in PBS. To the cell suspension a trypan blue solution in PBS by 1% concentration has been added immediately before the counting performed by means of cell-counting chamber. The number of live cells is shown in the FIGS. 4, 5a and 5b in the non-treated sample percentage.

RCE cells [3] = assay: ATP levels after excimer laser or 254 nm radiation (firefly luciferase kit); type: cell-based, rabbit; settings: Q10 10 μM in Lutrol F127; 2 h preincubation; 193 nm excimer laser (FIG. 2a) or 254 nm UV (FIG. 2b)
Protocol: In order to perform the ATP test, RCE cells have been placed at the density of 5×10^5 cells/plate in 10 plates of Petri with 10-cm diameter and incubated overnight in 5% CO2 atmosphere, 37° C. Subsequently the plates have been preincubated for 2 hours with Q10 at 10 μM dissolved in the Lutrol F127™ solution or with Lutrol F127™ only. The culture medium has been then replaced by 8 ml of sterile PBS, additioned with Ca^++ and Mg^++ to avoid the detach of the cells from the support and the plates have been submitted to treatment with excimer laser (λ=193 nm) as shown by FIG. 2a or with 254 nm ultraviolet laser, as shown in FIG. 2b. Subsequently the PBS has been replaced by fresh culture medium additioned with the above reagents and the plates have been incubated for further 2 hours. At the moment of the assay the cells have been detached with trypsin according to standard procedures and counted by means of cell-counting chamber. […] The ATP quantification in the extracts has been performed by the “ATP Determination Kit” (Molecular Probes, USA) kit, based upon the firefly lucipherase according to the supplier instructions. To detect fluorescence, an analyzer for liquid scintillation (Camberra Packard, USA) preset for the bioluminescence analysis has been utilized.

[4] = test system: RCE cells (Rabbit Corneal Epithelial Cells); assay: Malondialdehyde assay (lipid peroxidation / free radical production) after radiation; type: cell-based; settings: 2 h preincubation
Excerpt: The malondialdehyde is a product of the lipid peroxidation which occurs following exposure to free radicals of polyinsaturated fat acids. The malondialdehyde production is then routinely interpreted as a production index of the radicals themselves by means of treatment with electromagnetic radiations or oxidant substances. The Q10, as antioxidant, decreases the malondialdehyde production by indicating an action thereof which inhibits the free radicals' formation. To perform the malondialdehyde assay, RCE cells (Rabbit Corneal Epithelial Cells which are rabbit corneal keratocytes immortalized with SV40) have been plated at the density of 5×10^5 cell/plate in 10 plates of Petri with 10-cm diameter and incubated overnight in 5% CO2 atmosphere, 37° C. Then, the plates have been preincubated for 2 hours with Q10 10 μM, Vit.E, Vit. […] At the moment of the test the cells have been detached with trypsin according to standard procedures and counted by means of cell-counting chamber. […]
At 300 μl of buffy coat of each sample, 300 μl of thiobarbituric acid (TBA) by 1% have been added. The mixtures have been incubated at 95° C. for 30 minutes, centrifugated for 20 minutes at 12,000 RPM and the optic absorption of the buffy coat resulting by spettrophotometric analysis at λ=532 nm has been assessed. […]

RCE cells [5] = assay: Counting of cumulative apoptotic deaths by videomicroscopy at time intervals; type: cell-based, rabbit; settings: Q10 10 μM in Lutrol F127; 193 nm excimer laser and 254 nm UV; 24-72 hours after radiation; FIG. 6
Excerpt: The videomicroscopy at time intervals is up to now one of the few techniques, if not the only one, enabling to have, apart from the cell death-type characterization, the exact quantification thereof too. In fact by continuously considering the cell population it is possible to calculate the number of cumulative deaths without losing any death event due to the disintegration of the cell body which typically occurs during apoptosis.
To perform the experiment RCE cells have been plated at the density of 5×10^5 cells/plate with 10-cm diameter and incubated overnight at 37° C., CO2 10%. Subsequently, the plates have been preincubated for 2 hours with Q10 10 μM dissolved in the Lutrol F127^MT solution or with Lutrol F127™ only. The culture medium has been then replaced by 8 ml of sterile PBS, additioned with Ca^++ and Mg^++ to avoid the cell detachment from the support, and the plates have undergone treatment with excimer laser and λ=254 UV radiation in a Stratalinker apparatus, model 1800 (Stratagene) with various doses. Subsequently the PBS has been replaced by fresh culture medium additioned with the above reagents. […]

COC1=C(OC)C(=O)C(C/C=C(\C)CC/C=C(\C)CC/C=C(\C)CC/C=C(\C)CC/C=C(\C)CC/C=C(\C)CC/C=C(\C)CC/C=C(\C)CC/C=C(\C)CCC=C(C)C)=C(C)C1=O [Q10, ubiquinone Q10]
solubility in water [1]: non-hydrosoluble substance | vitality of cells (number of live cells, trypan blue) (RCE cells [2]): protective effect on the vitality of cells | ATP level following radiation (RCE cells [3]): protective effect opposing the decrease in the ATP level | malondialdehyde levels following treatment with UV at 254 nm ([4]; Q10 10 μM in Lutrol F127, alone or in combination with Vit.E, Vit.C, 254 nm UV 15,000 μJ/cm^2, FIG. 1a): protective effect | malondialdehyde production following treatment with 193 nm excimer laser ([4]; Q10 10 μM in Lutrol F127, various doses of 193 nm excimer laser, FIG. 1b): reductive effect against the malondialdehyde production | cumulative apoptotic deaths (RCE cells [5]): protective effect on cells treated with 193 nm excimer laser and 254 nm UV radiation
